Experimental data reported in publication PMC5548886 (Cancer Medicine, 2017).

How the values were obtained:
Assay in all cases: IHC of tumor biopsies, H-score change on-treatment vs pretreatment
Format in all cases: in vivo, human
[1] = test system: pS6
Procedure: (§1) Pharmacodynamic markers were examined using peripheral blood samples, tumor and nevi biopsies (when available) and tumor imaging. BRAF mutation status was determined by Sanger sequencing. Pharmacodynamic markers analyzed, in available tumor/nevus samples obtained before treatment or archival tissue and during treatment on cycle 1, day 8 or day 15, including cytoplasmic p‐MEK, p‐ERK, BIM, c‐KIT, p‐AKT473, pS6 and PTEN, and nuclear p‐ERK, Ki‐67, PARP, cyclin D1, MITF, p27, and p53. Biomarker expression was determined by calculating the percentage of change in the H‐score (14) between on‐treatment and fresh/archival pretreatment specimens. Blood levels of VEGFR‐2 and were assessed before and at multiple time points while on treatment using enzyme‐linked immunosorbent assay (ELISA). […] Changes in standard uptake value (SUV) were determined by a blinded, independent central imaging review panel. Complete metabolic response (CMR) was complete resolution of tumor FDG‐PET uptake so SUV is the same as background. Partial metabolic response (PMR) decrease in sum of the tumor SUV of ≥25% from the baseline scan. Progressive metabolic disease (PMD) was defined as an increase in tumor SUV of ≥25% from the baseline scan, or the appearance of new FDG‐PET uptake in metastatic lesions. Stable metabolic disease (SMD) was defined as a change in tumor SUV between the PMR and PMD criteria.

[2] = test system: nuclear p-ERK
Procedure: as §1

[3] = test system: cytoplasmic p-MEK
Procedure: as §1

[4] = test system: c-KIT
Procedure: as §1

[5] = test system: PARP
Procedure: as §1

[6] = test system: BIM
Procedure: as §1

SMILES: Cn1c(Nc2ccc(C(F)(F)F)cc2)nc2cc(Oc3ccnc(-c4ncc(C(F)(F)F)[nH]4)c3)ccc21 [RAF265]
- PS6 % change vs pretreatment, Mean (SD) ([1]; All patients, n 19): +6.9 (70.8) %
- PS6 % change vs pretreatment, Median ([1]; All patients, n 19): -13%
- PS6 % change vs pretreatment, Mean (SD) ([1]; DL 5, n 1): +255.6%
- PS6 % change vs pretreatment, Median ([1]; DL 5, n 1): +255.6%
- pS6, median decrease ([1]; DL 6): 35.8%
- PS6 % change vs pretreatment, Mean (SD) ([1]; DL 6, n 6): -20.6 (29.1) %
- PS6 % change vs pretreatment, Median ([1]; DL 6, n 6): -35.8%
- PS6 % change vs pretreatment, Mean (SD) ([1]; DLs 1 - 4, n 8): -16.8 (20.9) %
- PS6 % change vs pretreatment, Median ([1]; DLs 1 - 4, n 8): -18.9%
- PS6 % change vs pretreatment, Mean (SD) ([1]; DLs 7 and 7.1, n 4): 33.4 (55.7) %
- PS6 % change vs pretreatment, Median ([1]; DLs 7 and 7.1, n 4): +16.3%
- nuclear pERK % change vs pretreatment, Mean (SD) ([2]; All patients, n 21): -2 (51.6) %
- nuclear pERK % change vs pretreatment, Median ([2]; All patients, n 21): 0%
- nuclear pERK % change vs pretreatment, Mean (SD) ([2]; DL 5, n 2): +18.2 (35.8) %
- nuclear pERK % change vs pretreatment, Median ([2]; DL 5, n 2): +18.2%
- nuclear pERK % change vs pretreatment, Mean (SD) ([2]; DL 6, n 5): -41.8 (48) %
- nuclear pERK % change vs pretreatment, Median ([2]; DL 6, n 5): -22.2%
- nuclear pERK % change vs pretreatment, Mean (SD) ([2]; DLs 1 - 4, n 10): +21.1 (52.13) %
- nuclear pERK % change vs pretreatment, Median ([2]; DLs 1 - 4, n 10): 0%
- nuclear pERK % change vs pretreatment, Mean (SD) ([2]; DLs 7 and 7.1, n 4): -20.3 (31.3) %
- nuclear pERK % change vs pretreatment, Median ([2]; DLs 7 and 7.1, n 4): -7.6%
- cytoplasmic pMEK % change vs pretreatment, Mean (SD) ([3]; All patients, n 23): -4.3 (32) %
- cytoplasmic pMEK % change vs pretreatment, Median ([3]; All patients, n 23): -9.1%
- cytoplasmic pMEK % change vs pretreatment, Mean (SD) ([3]; DL 5, n 2): 0%
- cytoplasmic pMEK % change vs pretreatment, Median ([3]; DL 5, n 2): 0%
- cytoplasmic pMEK % change vs pretreatment, Mean (SD) ([3]; DL 6, n 6): -16.1 (17.3) %
- cytoplasmic pMEK % change vs pretreatment, Median ([3]; DL 6, n 6): -15.3%
- cytoplasmic pMEK % change vs pretreatment, Mean (SD) ([3]; DLs 1 - 4, n 11): +0.8 (44.4) %
- cytoplasmic pMEK % change vs pretreatment, Median ([3]; DLs 1 - 4, n 11): -11.1%
- cytoplasmic pMEK % change vs pretreatment, Mean (SD) ([3]; DLs 7 and 7.1, n 4): -2.6 (5.3) %
- cytoplasmic pMEK % change vs pretreatment, Median ([3]; DLs 7 and 7.1, n 4): 0%
- CKIT % change vs pretreatment, Median ([4]; All patients, n 8): 0%
- CKIT % change vs pretreatment, Mean (SD) ([4]; DL 6, n 1): 0%
- CKIT % change vs pretreatment, Median ([4]; DL 6, n 1): 0%
- CKIT % change vs pretreatment, Mean (SD) ([4]; DLs 1 - 4, n 4): -60 (80) %
- CKIT % change vs pretreatment, Median ([4]; DLs 1 - 4, n 4): -100%
- CKIT % change vs pretreatment, Mean (SD) ([4]; DLs 7 and 7.1, n 3): 0%
- CKIT % change vs pretreatment, Median ([4]; DLs 7 and 7.1, n 3): 0%
- PARP % change vs pretreatment, Mean (SD) ([5]; All patients, n 14): +89.1 (172.3) %
- PARP % change vs pretreatment, Median ([5]; All patients, n 14): +33.3%
- PARP % change vs pretreatment, Mean (SD) ([5]; DL 6, n 3): +20.00 (121.2) %
- PARP % change vs pretreatment, Median ([5]; DL 6, n 3): 0.00%
- PARP % change vs pretreatment, Mean (SD) ([5]; DLs 1 - 4, n 8): +65.1 (180.5) %
- PARP % change vs pretreatment, Median ([5]; DLs 1 - 4, n 8): -20%
- PARP % change vs pretreatment, Mean (SD) ([5]; DLs 7 and 7.1, n 3): +222.2 (167.8) %
- PARP % change vs pretreatment, Median ([5]; DLs 7 and 7.1, n 3): +200.00%
- BIM % change vs pretreatment, Mean (SD) ([6]; All patients, n 14): -17.00 (54.5) %
- BIM % change vs pretreatment, Median ([6]; All patients, n 14): 0%
- BIM % change vs pretreatment, Mean (SD) ([6]; DL 5, n 1): -100%
- BIM % change vs pretreatment, Median ([6]; DL 5, n 1): -100%
- BIM % change vs pretreatment, Mean (SD) ([6]; DL 6, n 2): -7.1 (11.1) %
- BIM % change vs pretreatment, Median ([6]; DL 6, n 2): -7.1%
- BIM % change vs pretreatment, Mean (SD) ([6]; DLs 1 - 4, n 8): -18 (65.1) %
- BIM % change vs pretreatment, Median ([6]; DLs 1 - 4, n 8): -14.3%
- BIM % change vs pretreatment, Mean (SD) ([6]; DLs 7 and 7.1, n 3): +6.7 (5.8) %
- BIM % change vs pretreatment, Median ([6]; DLs 7 and 7.1, n 3): +10%
